Source: patent US8633252B2, “Use of pterosin compounds for treating diabetes and obesity” (Taipei Medical University, priority 2009, dated 2014)

Experiments:
[1] = test system: Streptozotocin (STZ)-induced diabetic mice; experiment: Glucose tolerance assay in type I diabetic mice; type: in vivo
Method: Streptozotocin (STZ)-induced diabetic mice were administered orally with Compound 1 (50 mg/kg). STZ-induced diabetic mice are a well-known mouse model of type I diabetes (insulin dependent). See, e.g., Liu I M, et al., Neuroscience Letters 2001; 307: 81-84.
Two hours later, normal mice, STZ-induced diabetic mice, and the Compound 1-treated STZ-mice as described were subjected to a glucose tolerance assay. Briefly, all of the mice were orally administered with 1 g/kg glucose and the blood glucose levels of these mice were examined at 30, 60, 90, 120 and 150 minutes. In the normal and STZ-diabetic mice, the blood glucose levels elevated 30 minutes after uptake of glucose.
Alternatively, STZ-induced diabetic mice were treated with Compound 1 orally (100 mg/kg) for 14 days. These mice were then orally administered with glucose at a dose of 2 g/kg. Their blood glucose levels were examined 15, 45, 75, and 105 minutes after glucose administration.

C2C12 mycrotubes [2] = experiment: Insulin sensitivity assay (glucose uptake in presence of insulin); type: cell-based; details: in the presence of insulin 100 nM
Method: Differentiated C2C12 mycrotubes (American Type Culture Collection: ATCC) were used to conduct an insulin sensitivity assay, which was performed based on the method as described in Experimental and Molecular Medicine, Vol. 39, No. 2, 222-229, 2007. Briefly, the cells were incubated with different concentrations of Compound 1 in the presence of insulin 100 nM, and then the glucose uptake was measured. AMPK activator AICAR (5-amino-4-carboxamide imidazole riboside 5′-phosphate, […]) was used as a positive control.

C2C12 mycrotubes [3] = experiment: Glucose consumption/uptake assay; type: cell-based; details: [14C]2-DG, incubated with compounds for 1 hour
Method: Differentiated C2C12 mycrotubes (American Type Culture Collection: ATCC) were used to conduct a glucose consumption/uptake assay, which was performed based on the method as described in Experimental and Molecular Medicine, Vol. 39, No. 2, 222-229, 2007. Briefly, the C2C12 cells were pretreated with 0.5 μCi [^14C]2-DG for 20 min and then incubated with compounds for 1 hour to determine glucose uptake by radio activity. All values are expressed as the means±S.E. of three experiments.

[4] = test system: Glut4 (glucose transporter-4); experiment: Glucose transporter-4 (Glut4) expression assay in soleus muscles; type: in vivo; details: STZ-induced diabetic mice, 100 mg/kg orally for 14 days, western blot
Method: GLUT4 plays an important role in insulin-induced glucose uptake to maintain normal blood glucose levels. In this study, STZ-induced diabetic mice were treated with Compound 1 orally (100 mg/kg) for 14 days; and then normal mice, STZ-induced diabetic, and the Compound 1-treated STZ-mice as described were analyzed for the Glut4 expression in soleus muscles based on the method as described in Biochem J. 1996; 313(Pt 1): 133-140). Briefly, at the end of the experimental period, animals were sacrificed by exsanguinations under diethyl ether anesthesia. Soleus muscles from each animal were excised and weighed. The soleus muscles were homogenized in lysis buffer and centrifugation, and then went to determine the GLUT4 protein expression by western blot analysis.

PEPCK mRNA = experiment: Phosphoenolpyruvate carboxykinase (PEPCK) mRNA expression assay in liver; type: in vivo; details: STZ-induced diabetic mice, 100 mg/kg orally for 14 days, RT-PCR
Method: PEPCK is known as a key enzyme that controls gluconeogenesis in the liver. In this study, STZ-induced diabetic mice were treated with Compound 1 orally (100 mg/kg) for 14 days, and then normal mice, STZ-induced diabetic, and the Compound 1-treated STZ-mice described above were analyzed for the PEPCK mRNA expression in liver based on the method as described in Bulletin of Experimental Biology and Medicine 1979; 87: 568-571. Briefly, at the end of the experimental period, animals were sacrificed by exsanguinations under diethyl ether anesthesia. Livers from each animal were excised and weighed. The liver homogenates were prepared to determine the PEPCK mRNA expression by RT-PCR analysis.

db/db mice [5] = experiment: Glucose tolerance assay in type II diabetic mice; type: in vivo; details: 100 mg/kg/day orally 28 days or 30 mg/kg/day i.p. 21 or 28 days
Method: Insulin-resistant C57BL/6J-Leprdb/Lepr^db (hereafter, db/db) mice are a well-known mouse model of type II diabetes. See, e.g., Metabolism. 2000; 49:22-31). In this study, the db/db mice (Jackson Laboratory) were orally administered with Compound 1 (100 mg/kg/day) for 28 days, or administered with Compound 1 (30 mg/kg/day) via intraperitoneal (i.p.) injection for 21 days or 28 days. Two hours later, normal mice, db/db-mice, and the Compound 1-treated db/db-mice were subjected to a glucose tolerance assay as described in Example 1. FIGS. 6 to 8 show the results.

db/db mice [6] = experiment: HbA1C (Haemoglobin A1C) test in type II diabetic mice; type: in vivo; details: 100 mg/kg/day orally for 28 days
Method: In the blood stream, glucose sticks to the haemoglobin to form a “glycosylated haemoglobin” molecule, called haemoglobin A1C or HbA1C. The more glucose in the blood, the more haemoglobin A1C or HbA1C will be present in the blood. The HbA1C test is currently one of the common ways to check if diabetes is under control. See, e.g. Diabetes Care. 2001; 24:465-471.
In this study, the db/db mice (Jackson Laboratory) were orally administered with Compound 1 (100 mg/kg/day) for 28 days. Subsequently, normal mice, db/db-mice, and the Compound 1-treated db/db-mice were subjected to a HbA1C test, which was conducted based on a method as described in Life Sci. 2005; 77:1391-403. Briefly, at the end of the experimental period, animals were sacrificed by exsanguinations under diethyl ether anesthesia. Plasma was separated from the blood by centrifugation. HbA1c in blood was measured by the standardized method.

db/db mice [7] = experiment: HOMA-IR test in type II diabetic mice; type: in vivo; details: 100 mg/kg/day orally for 28 days
Method: HOMA-IR is expressed by an empirical mathematical formula based on fasting plasma glucose and fasting plasma insulin levels that was developed as a surrogate measurement of in vivo insulin sensitivity: HOMA value for insulin resistance: (HOMA-IR)=fasting insulin (μU/ml)×fasting glucose (mmol/l)/22.5. See, e.g., Biol. Pharm. Bull. 2007; 30:2196-2200.
In this study, the db/db mice (Jackson Laboratory) were orally administered with Compound 1 (100 mg/kg/day) for 28 days. Subsequently, normal mice, db/db-mice, and the Compound 1-treated db/db-mice were subjected to a HOMA-IR test, which was conducted based on a method as described in Biol. Pharm. Bull. 2007; 30:2196-2200. Briefly, mouse insulin enzyme immunoassay ELISA kit was used to measure the plasma insulin concentration. Insulin resistance was determined by the homeostasis model assessment (HOMA) method.

[8] = test system: AMP-activated protein kinase (AMPK); experiment: AMPK phosphorylation assay; type: cell-based; details: C2C12 myotubes, 0, 1, 3, 10 and 30 μM, 37° C., 1 hour
Method: In this study, differentiated C2C12 mycrotubes (American Type Culture Collection: ATCC) were used to conduct an AMPK phosphorylation assay, which was performed based on the method as described in Experimental and Molecular Medicine, Vol. 39, No. 2, 222-229, 2007. Briefly, the cells were cultured as in Example 1 and incubated with different concentrations of Compound 1 (0, 1, 3, 10 and 30 μM) at 37° C. for 1 hour and then cells were lysed. The cell lysate were immunodetected with phosphor-AMPK specific antibody. […] AMPK activator AICAR (5-amino-4-carboxamide imidazole riboside 5′-phosphate, 1 mM) was used as a positive control.

acetyl CoA carboxylase = experiment: Acetyl CoA carboxylase (ACC) phosphorylation assay; type: cell-based; details: C2C12 mycrotubes, different concentrations
[9] = test system: High fat-diet fed (HFD) mice; experiment: Blood lipid/cholesterol assay in high fat-diet fed mice; type: in vivo; details: 100 mg/kg orally for 28 days
Method: High fat-diet fed (HFD) mice as a type 2 diabetic model were prepared based on the method as previously described in Diabetes 53 (Suppl. 3):S215-S219, 2004). In this study, mice were fed with a high-fat diet (TestDiet, Richmond, Ind., USA; fat content 60% kcal) for 8 weeks to induce type 2 diabetes. The HFD mice were treated with Compound 1 orally (100 mg/kg) for 28 days; and then normal mice, HFD mice, and the Compound 1-treated HFD mice were analyzed for the levels of serum lipids, including total cholesterol, triglyceride, high-density lipoprotein (HDL)-cholesterol, and low-density lipoprotein (LDL)-cholesterol by ELISA kits.

[10] = STZ-induced diabetic mice, 100 mg/kg orally for 14 days, glucose 2 g/kg orally

| SMILES | blood glucose levels in STZ-induced diabetic mice (glucose tolerance) [1, 10] | insulin sensitivity (glucose uptake) (C2C12 mycrotubes [2]) | HOMA-IR levels (db/db mice [7]) | phosphorylation of the AMPK alpha-subunit at Thr172 [8] | also measured |
| --- | --- | --- | --- | --- | --- |
| Cc1cc2c(c(C)c1CCO)C(=O)C(C)(CO)C2 (stereo not shown) [Compound 1, 6-(2-Hydroxy-ethyl)-2-hydroxymethyl-2,5,7-trimethyl-indan-1-one] | significantly lowered blood glucose levels | significantly enhanced the insulin sensitivity | significantly reduced the HOMA-IR levels | increased the phosphorylation of the AMPK alpha-subunit at Thr^172 in a dose dependent manner | blood glucose levels at 30 minute after glucose uptake ([1]; STZ-diabetic mice, 50 mg/kg orally, 2 hours before 1 g/kg oral glucose, 30 min): increased only slightly; blood glucose levels 60 minutes after glucose uptake ([1]; STZ-diabetic mice, 50 mg/kg orally, 2 hours before 1 g/kg oral glucose, 60 min): significantly lowered; blood glucose levels 45 minutes after glucose administration ([1]; STZ-induced diabetic mice, 100 mg/kg orally for 14 days, glucose 2 g/kg orally, 45 min): decreased significantly; glucose consumption/uptake (C2C12 mycrotubes [3]): significantly promote glucose consumption/uptake; redistribution of Glut4 into the cell membrane of soleus muscles [4]: significantly rescued the redistribution of Glut4; overexpression of PEPCK mRNA in the liver (PEPCK mRNA): significantly inhibited the overexpression of PEPCK mRNA; glucose intolerance in db/db-mice (db/db mice [5]): significantly improved the glucose intolerance; HbA1C levels (db/db mice [6]): significantly reduced the HbA1C levels; phosphorylation of acetyl CoA carboxylase at Ser79 (acetyl CoA carboxylase): increased phosphorylation; anti-obesity effects [9]: exhibited anti-obesity effects; serum lipids ([9]; total cholesterol, triglyceride, HDL- and LDL-cholesterol by ELISA): significantly reduced serum lipids |
| Cc1cc2c(c(C)c1CCO)C(=O)C(C)C2O (stereo not shown) [Compound 4] |  |  |  | the same effect |  |
| Cc1cc2c(c(C)c1CCO)C(=O)C(C)(C)C2O (stereo not shown) [Compound 7] | the same effect | the same effect | the same effect | the same effect |  |
| Cc1cc2c(c(C)c1CCOC1OC(CO)C(O)C(O)C1O)C(=O)C(C)(C)C2 (stereo not shown) [Compound 52] |  |  |  | the same effect |  |
| Cc1cc2c(c(C)c1CCO)C(=O)C(C)(C)C2OC1OC(CO)C(O)C(O)C1O (stereo not shown) [Compound 73] | the same effect | the same effect | the same effect | the same effect |  |
